Results: patent US12172983B2, “EGFR inhibitors” (Blueprint Medicines Corporation, priority 2019, dated 2024)
Where two headings read alike, the source gives them in different places.

Columns and labels:
EGFR (L858R T790M C797S) = molecular target: T1, EGFR (L858R T790M C797S) (Homo sapiens, UniProt P00533, C797S/L858R/T790M); assay: Biochemical EGFR inhibition assay (Caliper mobility shift), EGFR LRTMCS mutant; settings: inhibitory activity against EGFR LRTMCS mutant; apparent IC50; read-out: Ext Enz LRTMCS
T1 construct: purchased SignalChem E10-122VG
Procedure, shortened: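 Kinase reactions at 25 °C run to 10–20% peptide phosphorylation, stopped with 35 mM EDTA. Phosphorylated product and substrate separated electrophoretically by mobility shift. Apparent IC50 from percent activity versus log compound concentration.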

[1] = test system: phosphorylation of EGFR (Tyr1068) in NCI-H1975 cell line that harbors the EGFR L858R T790M mutations; assay: NCI-H1975 pEGFR AlphaLISA assay; format: cell-based; settings: 4-5 hours incubation, read-out: Ext pEGFR H1975
Procedure, shortened: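 Phospho-EGFR Tyr1068 AlphaLISA readout: lysates taken from compound-treated H1975 cells (L858R T790M EGFR) after a 4-5 h exposure at 37 °C. Cells had adhered overnight beforehand. IC50 derived by plotting % pEGFR inhibition against log compound concentration.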

[2] = Homo sapiens, NCI-H1975, inhibition of phosphorylation of mutant EGFR in NCI-H1975 cells

T1 sequence (P00533 25-1210 T790M/C797S/L858R): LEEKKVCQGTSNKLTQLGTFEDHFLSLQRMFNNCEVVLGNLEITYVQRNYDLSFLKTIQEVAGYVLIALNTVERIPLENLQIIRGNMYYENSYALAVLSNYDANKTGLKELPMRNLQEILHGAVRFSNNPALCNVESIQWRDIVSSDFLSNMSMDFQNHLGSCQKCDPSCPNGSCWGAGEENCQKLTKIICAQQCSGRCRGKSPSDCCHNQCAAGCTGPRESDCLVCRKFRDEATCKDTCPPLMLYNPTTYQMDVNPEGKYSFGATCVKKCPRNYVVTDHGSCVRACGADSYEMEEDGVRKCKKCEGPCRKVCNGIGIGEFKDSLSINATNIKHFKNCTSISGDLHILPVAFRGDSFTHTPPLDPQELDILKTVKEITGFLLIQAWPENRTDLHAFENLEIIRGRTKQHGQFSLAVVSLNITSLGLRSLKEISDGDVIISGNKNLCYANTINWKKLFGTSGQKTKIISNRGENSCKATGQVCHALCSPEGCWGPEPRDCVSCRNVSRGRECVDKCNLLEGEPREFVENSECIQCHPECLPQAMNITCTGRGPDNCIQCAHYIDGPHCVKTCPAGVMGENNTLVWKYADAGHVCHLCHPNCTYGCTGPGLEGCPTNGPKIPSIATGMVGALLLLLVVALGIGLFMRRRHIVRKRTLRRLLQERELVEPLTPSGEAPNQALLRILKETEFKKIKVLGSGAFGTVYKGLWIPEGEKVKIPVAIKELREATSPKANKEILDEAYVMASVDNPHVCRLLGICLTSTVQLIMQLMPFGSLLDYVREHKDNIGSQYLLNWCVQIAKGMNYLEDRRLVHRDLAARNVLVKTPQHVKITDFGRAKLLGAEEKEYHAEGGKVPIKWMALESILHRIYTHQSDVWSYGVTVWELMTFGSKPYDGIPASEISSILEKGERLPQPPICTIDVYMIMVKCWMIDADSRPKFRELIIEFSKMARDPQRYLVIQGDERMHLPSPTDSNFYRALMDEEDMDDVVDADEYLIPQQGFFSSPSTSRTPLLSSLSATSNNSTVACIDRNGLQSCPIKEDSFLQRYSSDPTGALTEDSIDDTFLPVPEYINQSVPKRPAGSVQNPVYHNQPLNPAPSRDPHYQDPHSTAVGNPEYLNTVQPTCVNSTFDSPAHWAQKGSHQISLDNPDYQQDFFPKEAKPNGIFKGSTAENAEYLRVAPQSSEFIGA

| Structure (SMILES) | IC50 (EGFR (L858R T790M C797S)) [µM] | IC50 [1, 2] [µM] | IC50 ([1]; inhibition of phosphorylation of mutant EGFR in NCI-H1975 cells) [µM] |
| --- | --- | --- | --- |
| C[C@H](CO)c1ccc(N2C[C@H](CS(C)(=O)=O)[C@H]2C)c2cnc(Nc3ccnc(N4CC[C@@](C)(O)[C@@H](F)C4)n3)cc12 (single isomer, unassigned) [Compound 199, (3S,4R)-3-fluoro-1-(4-(5-((S)-1-hydroxypropan-2-yl)-8-((2R,3S)-2-methyl-3-(methylsulfonylmethyl)azetidin-1-yl)isoquinolin-3-ylamino)pyrimidin-2-yl)-4-methylpiperidin-4-ol or (3S,4R)-3-fluoro-1-(4-((5-((R)-1-hydroxypropan-2-yl)-8-((2R,3S)-2-methyl-3-((methylsulfonyl)methyl)azetidin-1-yl)isoquinolin-3-yl)amino)pyrimidin-2-yl)-4-methylpiperidin-4-ol] | ≤ 0.015 | 0.0101 to 0.02 | – |
| CC(C)c1ccc(N2C[C@H](CS(C)(=O)=O)[C@H]2C)c2cnc(Nc3ccnc(N4CC[C@@H](OCCO)[C@@](C)(F)C4)n3)cc12 (single isomer, unassigned) [Compound 242] | ≤ 0.015 | ≤ 0.01 | – |
| CC(C)c1ccc(N2C[C@H](CS(C)(=O)=O)[C@H]2C)c2cnc(Nc3ccnc(N4CC[C@H](O)C[C@@H]4C)n3)cc12 (single isomer, unassigned) [Compound 47, (2S,4S)-1-[4-({8-[(2R,3S)-3-(methanesulfonylmethyl)-2-methylazetidin-1-yl]-5-(propan-2-yl)isoquinolin-3-yl}amino)pyrimidin-2-yl]-2-methylpiperidin-4-ol or (2R,4R)-1-[4-({8-[(2R,3S)-3-(methanesulfonylmethyl)-2-methylazetidin-1-yl]-5-(propan-2-yl)isoquinolin-3-yl}amino)pyrimidin-2-yl]-2-methylpiperidin-4-ol] | 0.0151 to 0.02 | ≤ 0.01 | – |
| CO[C@@H]1[C@H](F)CN(c2nccc(Nc3cc4c(C(C)C)ccc(N5C[C@H](CS(C)(=O)=O)[C@H]5C)c4cn3)n2)C[C@@H]1O (racemic) [Compound 198, (3R,4R,5S)-5-fluoro-1-(4-((5-isopropyl-8-((2R,3S)-2-methyl-3-((methylsulfonyl)methyl)azetidin-1-yl)isoquinolin-3-yl)amino)pyrimidin-2-yl)-4-methoxypiperidin-3-ol and (3S,4S,5R)-5-fluoro-1-(4-((5-isopropyl-8-((2R,3S)-2-methyl-3-((methylsulfonyl)methyl)azetidin-1-yl)isoquinolin-3-yl)amino)pyrimidin-2-yl)-4-methoxypiperidin-3-ol] | 0.0151 to 0.02 | ≤ 0.01 | – |
| CC(C)c1cnc(N2C[C@H](CS(C)(=O)=O)[C@H]2C)c2cnc(Nc3ccnc(N4CC[C@@](C)(O)C(F)(F)C4)n3)cc12 (single isomer, unassigned) [Compound 215, (4R)-3,3-difluoro-1-[4-({8-[(2R,3S)-3-(methanesulfonylmethyl)-2-methylazetidin-1-yl]-5-(propan-2-yl)-2,7-naphthyridin-3-yl}amino)pyrimidin-2-yl]-4-methylpiperidin-4-ol or (4S)-3,3-difluoro-1-[4-({8-[(2R,3S)-3-(methanesulfonylmethyl)-2-methylazetidin-1-yl]-5-(propan-2-yl)-2,7-naphthyridin-3-yl}amino)pyrimidin-2-yl]-4-methylpiperidin-4-ol] | ≤ 0.015 | ≤ 0.01 | – |
| CC(C)c1ccc(N2C[C@H](CS(C)(=O)=O)[C@H]2C)c2cnc(Nc3ccnc(N4CC[C@](C)(O)[C@H](O)C4)n3)cc12 (single isomer, unassigned) [Compound 101, (4R)-1-[4-({8-[(2R,3S)-3-(methanesulfonylmethyl)-2-methylazetidin-1-yl]-5-(propan-2-yl)isoquinolin-3-yl}amino)pyrimidin-2-yl]-4-methylpiperidine-3,4-diol or (3S,4R)-1-[4-({8-[(2R,3S)-3-(methanesulfonylmethyl)-2-methylazetidin-1-yl]-5-(propan-2-yl)isoquinolin-3-yl}amino)pyrimidin-2-yl]-4-methylpiperidine-3,4-diol] | ≤ 0.015 | – | 0.0101 to 0.02 |
